Patent US20240343694A1, “PYRIMIDINE DERIVATIVE, METHOD FOR PREPARING SAME, AND PHARMACEUTICAL COMPOSITION FOR PREVENTING OR TREATING CANCER COMPRISING SAME AS ACTIVE INGREDIENT” (KOREA RESERARCH INSTITUTE OF CHEMICAL TECHNOLOGY, priority 2021, published 2024)

Tests used:
HER2 A775_G776insYVMA = HER2 A775_G776insYVMA (Homo sapiens (Human), UniProt P04626, INS775YVMA); experiment: HTRF inhibitory activity against HER2 mutant enzyme; type: biochemical; conditions: recombinant enzyme, 37° C. for 2 hours
Sequence of HER2 A775_G776insYVMA (P04626 other isoform, or with tags, fused parts or gaps del 1-675/ins YVMA behind 775 limits assumed): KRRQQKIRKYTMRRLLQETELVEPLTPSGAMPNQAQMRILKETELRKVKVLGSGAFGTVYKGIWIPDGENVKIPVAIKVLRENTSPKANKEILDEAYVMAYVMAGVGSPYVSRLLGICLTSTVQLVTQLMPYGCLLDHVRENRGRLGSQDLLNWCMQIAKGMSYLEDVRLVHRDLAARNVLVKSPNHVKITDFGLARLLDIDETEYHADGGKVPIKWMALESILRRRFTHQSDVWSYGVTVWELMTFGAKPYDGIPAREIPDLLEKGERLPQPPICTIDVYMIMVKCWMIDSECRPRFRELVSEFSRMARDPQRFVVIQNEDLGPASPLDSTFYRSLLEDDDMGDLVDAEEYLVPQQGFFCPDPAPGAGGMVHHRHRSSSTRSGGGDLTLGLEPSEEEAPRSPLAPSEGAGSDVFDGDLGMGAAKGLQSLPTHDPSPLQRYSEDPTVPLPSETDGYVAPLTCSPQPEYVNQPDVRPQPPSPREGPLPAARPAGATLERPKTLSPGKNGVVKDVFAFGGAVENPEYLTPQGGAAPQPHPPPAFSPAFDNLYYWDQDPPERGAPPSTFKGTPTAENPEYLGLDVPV
Outline: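 Recombinant HER2 A775_G776insYVMA preincubated with compound, then […] and biotinylated peptide ([…]) added; 2 h at 37 °C in Tris-HCl pH 7.5 buffer with MgCl2, DTT. HTRF detection (Eu anti-phosphotyrosine/streptavidin-XL665); IC50 from 7 concentrations.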

EGFR del19 = EGFR del19 (Homo sapiens (Human), UniProt P00533, DEL746-750); experiment: HTRF inhibitory activity against EGFR mutant enzyme (EGFR del19); type: biochemical; conditions: recombinant enzyme, 37° C. for 2 hours
Sequence of EGFR del19 (P00533 other isoform, or with tags, fused parts or gaps del 1-668/del 746-750 limits assumed): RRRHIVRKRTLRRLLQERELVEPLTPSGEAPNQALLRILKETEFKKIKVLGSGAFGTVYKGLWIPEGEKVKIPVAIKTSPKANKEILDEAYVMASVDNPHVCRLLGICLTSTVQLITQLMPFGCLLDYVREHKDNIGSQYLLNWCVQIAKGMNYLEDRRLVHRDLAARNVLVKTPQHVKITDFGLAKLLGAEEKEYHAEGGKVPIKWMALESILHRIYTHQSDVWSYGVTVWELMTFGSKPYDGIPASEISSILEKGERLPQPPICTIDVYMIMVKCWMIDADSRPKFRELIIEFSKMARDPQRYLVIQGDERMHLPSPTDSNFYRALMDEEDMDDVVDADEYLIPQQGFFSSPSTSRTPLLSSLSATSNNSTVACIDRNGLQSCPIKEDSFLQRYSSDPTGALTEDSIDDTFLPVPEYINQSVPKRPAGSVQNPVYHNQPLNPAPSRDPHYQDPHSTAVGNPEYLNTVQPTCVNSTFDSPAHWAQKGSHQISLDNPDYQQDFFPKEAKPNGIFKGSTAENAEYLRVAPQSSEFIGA
Outline: (§1)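 IC50 was derived from 7 concentrations by HTRF: Eu-anti-pTyr and streptavidin-XL665 for 1 h at room temperature, with the 615/665 nm ratio read. The kinase reaction ran 2 h at 37 °C in Tris pH 7.5 buffer with ATP (stated 50 mM) and biotinylated peptide (0.5 mM). Enzyme was preincubated with compound before substrate was added.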

EGFR A763_Y764insFHEA = EGFR A763_Y764insFHEA (Homo sapiens (Human), UniProt P00533, INS763FHEA); experiment: HTRF inhibitory activity against EGFR mutant enzyme (EGFR A763_Y764insFHEA); type: biochemical; conditions: recombinant enzyme, 37° C. for 2 hours
Sequence of EGFR A763_Y764insFHEA (P00533 other isoform, or with tags, fused parts or gaps del 1-694/ins FHEA behind 763 limits assumed): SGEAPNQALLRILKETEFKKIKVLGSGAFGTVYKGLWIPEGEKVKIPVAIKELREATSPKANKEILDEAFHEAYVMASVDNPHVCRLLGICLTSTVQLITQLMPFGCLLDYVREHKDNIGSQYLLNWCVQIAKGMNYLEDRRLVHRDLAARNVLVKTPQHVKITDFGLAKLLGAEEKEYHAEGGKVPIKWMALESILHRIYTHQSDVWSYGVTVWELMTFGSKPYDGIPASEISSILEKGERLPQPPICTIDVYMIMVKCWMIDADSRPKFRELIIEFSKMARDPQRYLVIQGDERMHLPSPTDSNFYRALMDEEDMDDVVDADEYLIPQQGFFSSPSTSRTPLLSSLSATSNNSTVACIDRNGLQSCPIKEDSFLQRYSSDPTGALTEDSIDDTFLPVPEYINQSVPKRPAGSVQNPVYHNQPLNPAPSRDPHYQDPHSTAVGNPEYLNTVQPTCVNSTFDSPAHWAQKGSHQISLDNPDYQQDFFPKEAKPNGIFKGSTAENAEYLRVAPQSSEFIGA
Outline: as §1

[1] = system: Ba/F3 EGFR D770_N771insSVD; experiment: Growth inhibition of Ba/F3 EGFR mutant cells (CellTiter-Glo); type: cell-based; conditions: Ba/F3 EGFR-D770-N771ins_SVD, 72 hours
Description: (§2) The activity of the compounds of the present invention against Ba/F3 EGFR V769_D770insASV and Ba/F3 EGFR D770_N771insSVD mutant cell lines was measured using the CellTiter-Glo system purchased from Promega as follows. CellTiter-Glo assay is a method to measure cell viability by monitoring ATP present in cells. Ba/F3 EGFR V769_D770insASV and Ba/F3 EGFR D770_N771insSVD mutant cell lines were purchased from Crown Biosciences. Ba/F3 EGFR V769_D770insASV and Ba/F3 EGFR D770_N771insSVD mutant cell lines were cultured in RPMI containing 10% FBS and 1% penicillin-streptomycin with 1 μg/mL of puromycin in a 5% CO2 incubator at 37° C.
(§3) The analysis of the ability of the compounds to inhibit the growth of EGFR mutant cells was performed according to the following method. 1,000 cells/100 μL were seeded in a 96-well cell culture plate, and 24 hours thereafter, the compounds represented by Formula 1 were treated with 0 μM, 0.01 μM, 0.03 μM, 0.1 μM, 0.3 μM, 1 μM, 3 μM, and 10 μM. After incubating for 72 hours, the plate treated with the compounds were left at room temperature for 30 minutes, 100 μL of a reagent was further added thereto, and then shaken at room temperature for 10 minutes. Finally, using equipment, the ratio of […] was measured to confirm the cell growth inhibition ability of the compounds. The measured values at 8 compound concentrations were analyzed using the Prism program (version 5.01, Graphpad Software, Inc.), and the IC50 (μM) values, which are measures of the compounds' inhibitory ability, were calculated.

[2] = system: Ba/F3 EGFR V769_D770insASV; experiment: as above; type: cell-based; conditions: 72 hours
Description: as §2, §3

[3] = system: Ba/F3 HER2 A775_G776insYVMA; experiment: Growth inhibition of Ba/F3 HER2 mutant cells (CellTiter-Glo); type: cell-based; conditions: Mus musculus, BaF3, 72 hours
Outline: (§4)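 Ba/F3 cells carrying HER2 A775_G776insYVMA or G776delinsVC were seeded at 1,000 cells/well and dosed 24 h later at 0.01-10 μM (8 concentrations including 0). After 72 h, viability was read as cellular ATP by CellTiter-Glo luminescence, and IC50 values were calculated from the 8-point curves.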

Ba/F3 HER2 G776delinsVC = experiment: as above; type: cell-based; conditions: Mus musculus, BaF3, 72 hours
Outline: as §4

IC50 (HER2 A775_G776insYVMA) | IC50 (EGFR del19) | IC50 (EGFR A763_Y764insFHEA) | IC50 [1] | IC50 [2] | IC50 [3] | IC50 (Ba/F3 HER2 G776delinsVC) | SMILES
5 nM | < 1 nM | 1 nM | 10 to 30 nM | 10 to 30 nM | 30 to 50 nM | < 10 nM | C=CC(=O)Nc1cc(Nc2ncc(Cl)c(Nc3cccc4c3N(C(C)=O)CC4)n2)c(OC)cc1N(C)CCNC [Example 92, N-(5-((4-((1-acetylindolin-7-yl)amino)-5-chloropyrimidin-2-yl)amino)-4-methoxy-2-(methyl(2-(methylamino)ethyl)amino)phenyl)acrylamide]
14 nM | < 1 nM | 2 nM | 30 to 50 nM | 30 to 50 nM | 30 to 50 nM | < 10 nM | C=CC(=O)Nc1cc(Nc2ncc(Cl)c(Nc3cccc(C)c3N(C)S(C)(=O)=O)n2)c(OC)cc1N(C)CCN(C)C [Example 38, N-(5-((5-chloro-4-((3-methyl-2-(N-methylmethylsulfonamido)phenyl)amino)pyrimidin-2-yl)amino)-2-((2-(dimethylamino)ethyl)(methyl)amino)-4-methoxyphenyl)acrylamide]
292 nM | 4 nM | 22 nM | 10 to 30 nM | 10 to 30 nM | > 100 nM | < 10 nM | C=CC(=O)Nc1cc(Nc2ncc(Cl)c(Nc3cccc4c3N(C(=O)CC)CCC4)n2)c(OC)cc1N(C)CCN(C)C [Example 94, N-(5-((5-chloro-4-((1-propionyl-1,2,3,4-tetrahydroquinolin-8-yl)amino)pyrimidin-2-yl)amino)-2-((2-(dimethylamino)ethyl)(methyl)amino)-4-methoxyphenyl)acrylamide]
60 nM | 0.1 nM | 10 nM | 50 to 100 nM | 50 to 100 nM | 50 to 100 nM | < 10 nM | C=CC(=O)Nc1cc(Nc2ncc(Cl)c(Nc3cccc4c3N(S(C)(=O)=O)CCC4)n2)c(OC)cc1N1CCC(N(C)C)CC1 [Example 49, N-(5-((5-chloro-4-((1-(methylsulfonyl)-1,2,3,4-tetrahydroquinolin-8-yl)amino)pyrimidin-2-yl)amino)-2-(4-(dimethylamino)piperidin-1-yl)-4-methoxyphenyl)acrylamide]
225 nM | 3 nM | 9 nM | 10 to 30 nM | 10 to 30 nM | > 100 nM | < 10 nM | C=CC(=O)Nc1cc(Nc2nccc(Nc3cccc4c3N(C(C)=O)CC4)n2)c(OC)cc1N(C)CCN(C)C [Example 100, N-(5-((4-((1-acetylindolin-7-yl)amino)pyrimidin-2-yl)amino)-2-((2-(dimethylamino)ethyl)(methyl)amino)-4-methoxyphenyl)acrylamide]
871 nM | 18 nM | 43 nM | 30 to 50 nM | 30 to 50 nM | > 100 nM | 10 to 30 nM | C=CC(=O)Nc1cc(Nc2ncc(Cl)c(Nc3cccc(C)c3N(C)C(C)=O)n2)c(OC)cc1N(C)CCN(C)C [Example 85, N-(5-((5-chloro-4-((3-methyl-2-(N-methylacetamido)phenyl)amino)pyrimidin-2-yl)amino)-2-((2-(dimethylamino)ethyl)(methyl)amino)-4-methoxyphenyl)acrylamide]
60 nM | < 1 nM | 3 nM | 50 to 100 nM | 50 to 100 nM | 50 to 100 nM | < 10 nM | C=CC(=O)Nc1cc(Nc2ncc(Cl)c(Nc3cccc4c3N(S(C)(=O)=O)CCC4)n2)c(OC)cc1N1CCC(N2CCN(C)CC2)CC1 [Example 50, N-(5-((5-chloro-4-((1-(methylsulfonyl)-1,2,3,4-tetrahydroquinolin-8-yl)amino)pyrimidin-2-yl)amino)-4-methoxy-2-(4-(4-methylpiperazin-1-yl)piperidin-1-yl)phenyl)acrylamide]
22 nM | < 1 nM | 3 nM | > 100 nM | > 100 nM | > 100 nM | 10 to 30 nM | C=CC(=O)Nc1cc(Nc2ncc(Cl)c(Nc3ccccc3NS(C)(=O)=O)n2)c(OC)cc1OCCN1CCCC1 [Example 22, N-(5-((5-chloro-4-((2-(methylsulfonamido)phenyl)amino)pyrimidin-2-yl)amino)-4-methoxy-2-(2-(pyrrolidin-1-yl)ethoxy)phenyl)acrylamide]
374 nM | 3 nM | 19 nM | 30 to 50 nM | 30 to 50 nM | > 100 nM | < 10 nM | C=CC(=O)Nc1cc(Nc2ncc(Cl)c(Nc3ccc(C)c(C)c3N(C)C(C)=O)n2)c(OC)cc1N(C)CCN(C)C [Example 83, N-(5-((5-chloro-4-((3,4-dimethyl-2-(N-methylacetamido)phenyl)amino)pyrimidin-2-yl)amino)-2-((2-(dimethylamino)ethyl)(methyl)amino)-4-methoxyphenyl)acrylamide]
54 nM | 2 nM | 11 nM | 10 to 30 nM | 10 to 30 nM | 30 to 50 nM | < 10 nM | C=CC(=O)Nc1cc(Nc2ncc(Cl)c(Nc3cccc4c3N(C(C)=O)CCC4)n2)c(OC)cc1N(C)CCN(C)C [Example 95, N-(5-((4-((1-acetyl-1,2,3,4-tetrahydroquinolin-8-yl)amino)-5-chloropyrimidin-2-yl)amino)-2-((2-(dimethylamino)ethyl)(methyl)amino)-4-methoxyphenyl)acrylamide]
2 nM | < 1 nM | < 1 nM | < 10 nM | 30 to 50 nM | < 10 nM | 30 to 50 nM | C=CC(=O)Nc1cc(Nc2ncc(Cl)c(Nc3ccc(C)cc3NS(C)(=O)=O)n2)c(OC)cc1N(C)CCN(C)C [Example 46, N-(5-((5-chloro-4-((4-methyl-2-(methylsulfonamido)phenyl)amino)pyrimidin-2-yl)amino)-2-((2-(dimethylamino)ethyl)(methyl)amino)-4-methoxyphenyl)acrylamide]
20 nM | < 1 nM | < 1 nM | 50 to 100 nM | 50 to 100 nM | 50 to 100 nM | 50 to 100 nM | C=CC(=O)Nc1cc(Nc2ncc(Cl)c(Nc3cccc4c3N(S(C)(=O)=O)CC4)n2)c(OC)cc1N1CCC(N2CCN(C)CC2)CC1 [Example 59, N-(5-((5-chloro-4-((1-(methylsulfonyl)indolin-7-yl)amino)pyrimidin-2-yl)amino)-4-methoxy-2-(4-(4-methylpiperazin-1-yl)piperidin-1-yl)phenyl)acrylamide]
5 nM | < 1 nM | < 1 nM | 10 to 30 nM | 10 to 30 nM | 50 to 100 nM | 10 to 30 nM | C=CC(=O)Nc1cc(Nc2ncc(Cl)c(Nc3ccccc3N(C)S(C)(=O)=O)n2)c(OC)cc1N(C)CCN(C)C [Example 29, N-(5-((5-chloro-4-((2-(N-methylmethylsulfonamido)phenyl)amino)pyrimidin-2-yl)amino)-2-((2-(dimethylamino)ethyl)(methyl)amino)-4-methoxyphenyl)acrylamide]
0.3 nM | < 1 nM | < 1 nM | 30 to 50 nM | < 10 nM | < 10 nM | < 10 nM | C=CC(=O)Nc1cc(Nc2ncc(Cl)c(Nc3ccccc3N(CC)S(C)(=O)=O)n2)c(OC)cc1N(C)CCN(C)C [Example 31, N-(5-((5-chloro-4-((2-(N-ethylmethylsulfonamido)phenyl)amino)pyrimidin-2-yl)amino)-2-((2-(dimethylamino)ethyl)(methyl)amino)-4-methoxyphenyl)acrylamide]
